Assay: gradient 5% acetonitrile 3 min, to 50% in 2 min, to 85% in 15 min, held 3 min, 100 µL/min
Conditions: column: Zorbax Extend-C18 2.1 x 50 mm; eluents: water / acetonitrile, 0.1% formic acid
How it was run: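 Retention times of pure standards were taken from adduct peaks that were selected by computer and manually inspected. Over 3 months, mixtures of ~100 molecules were run by HPLC–quadrupole time-of-flight mass spectrometry in positive and negative ionization mode. The Zorbax Extend-C18 column (2.1 × 50 mm, 1.8 μm) ran at 100 μL/min in water and acetonitrile, each containing 0.1% formic acid, with 40 μL dead volume and 900 μL dwell volume.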

RP-LC retention time	SMILES
1000 s	CCn1cc(C)c(C(=O)O)c1CC(=O)N(C)c1ccc(C)c(C)c1
812 s	CCN1C(=O)c2cccnc2Sc2cc(NC(=O)c3ccccc3)ccc21
606 s	CCN1C(=O)NC(c2cccc(F)c2)C2=C1CN(CCC(=O)N1CCCC1)C2=O (centres undefined)
1060 s	CCN1C=C(C(=O)OCc2cc(C)ccc2C)C(C)=NS1(=O)=O
845 s	CCc1ccccc1NC(=O)c1cccn1Cc1noc(C)n1
668 s	O=C(Cn1nc2c(cc1=O)CCCC2)Nc1ccc(N2CCCS2(=O)=O)cc1
803 s	O=C(CN1C(=O)CCCc2cc(S(=O)(=O)N3CCCC3)ccc21)Nc1ccccc1
690 s	COc1cccc(C(=O)Nc2nnc(C3CC(=O)N(c4ccccc4)C3)o2)c1 (centres undefined)
1140 s	CCOC(=O)c1c(C)c(C(=O)C(C)N(C(=O)c2ccc(Cl)cc2)C2CC2)c(C)n1CC (centres undefined)
582 s	CCOC(=O)CNC(=O)Nc1ccc2nc(N3CCOCC3)cc(C)c2c1
862 s	COc1ccc(NC(=O)c2cnc3c(c2)c(=O)n(C)c(=O)n3-c2ccccc2)cc1
731 s	COc1cccc(NC(=O)N2CCN(Cc3nc4cc(Cl)ccc4o3)CC2)c1
610 s	CCN1C(=O)Cc2ccccc2C1C(=O)NCCOC (centres undefined)
655 s	O=C(Cn1cnc2nc(N3CCC(C(=O)NC4CC4)CC3)sc2c1=O)Nc1cccc(F)c1
852 s	Cc1ccc(S(=O)(=O)N2C[C@H]3CN(C(=O)Nc4cccc(C)c4)C[C@@H](C2)O3)cc1
746 s	CCCCNC(=O)c1ccc(-n2ccnc2SCC(=O)Nc2ccccc2)cc1
730 s	CSc1nc2ccc(NC(=O)c3ccc(N4C(=O)CCC4=O)cc3)cc2s1
692 s	O=C(NCc1ccccc1C(F)(F)F)c1ccc2ncnc(N3CCCC3)c2c1
653 s	CC1(C(=O)NCc2ccc(F)cc2)CCN(C(=O)Nc2ccc3c(c2)OCCO3)CC1
1010 s	CCCCOC(=O)c1ccc(NC(=O)c2snnc2CC)cc1
804 s	CN1c2ccccc2C(=O)NC12CCN(C(=O)Nc1cccc(Cl)c1)CC2
555 s	O=C(O)CCC(=O)Nc1cccc(C(=O)O)c1
728 s	O=C(Cn1cnc2nc3c(cc2c1=O)CCCC3)NCCc1ccccc1
994 s	Cc1nc(CC(=O)Nc2nc(-c3cccc(Cl)c3)c(C)s2)cs1
839 s	CCc1nnc(-c2ccc3ccn(CC(=O)Nc4cccc(OC)c4)c3c2)o1
829 s	CCOc1cc(=O)n2c(c1C(=O)Nc1ccc(Cl)c(C)c1)CCCC2
685 s	O=C(Cn1c(=O)c2cccn2c2ccc(F)cc21)NC1CC1
994 s	CCc1nc(-c2csc(S(=O)(=O)N3CCC(C(=O)Nc4ccc(C)c(Cl)c4)CC3)c2)no1
699 s	O=C(Cc1ccsc1)Nc1cccn2ncnc12
888 s	CC(C)n1cnc(S(=O)(=O)N2CCC(C(=O)Nc3ccc(OC(F)(F)F)cc3)CC2)c1

Continued, molecule first:

SMILES	RP-LC retention time
O=C(Nc1ccc2c(c1)OCCO2)c1nn(CC2CC2)c2c1CNCC2	568 s
Cc1nc2cc(-c3noc(Cc4ccc(F)cc4)n3)ccc2o1	983 s
CCOc1cc(Nc2ccc(NC(=O)c3ccco3)cc2)nc(C)n1	591 s
Cc1cc(-c2nnc(C3CCC3)o2)c(C)n1CC(=O)NCc1cccc(C(F)(F)F)c1	937 s
O=C(Nc1ccc(F)c(Cl)c1)N1CCN(CCn2c(-c3ccncc3)nc3cccnc32)CC1	627 s
COc1cc(NCc2ccccc2O)c2ncccc2c1	758 s
CC(C)n1nc(CNC(=O)c2cccs2)c2ccccc21	845 s
CCn1cnc(S(=O)(=O)N2CCCC(C(=O)N3CCN(c4ccccn4)CC3)C2)c1 (centres undefined)	575 s
O=C(CN1C(=O)c2ccccc2Sc2ncccc21)N1CCC(N2CCCCC2)CC1	583 s
CCCN1N=C(C(=O)N2CCOCC2)S(=O)(=O)c2ccc(Cl)cc21	809 s
OC[C@H]1O[C@@H](c2ccc(Cl)c(Cc3ccc(O[C@H]4CCOC4)cc3)c2)[C@H](O)[C@@H](O)[C@@H]1O	736 s
CSc1nnc(NC(=O)c2ccccc2Br)s1	737 s
CC1Oc2ccc(S(=O)(=O)N3CCC(C(=O)NCc4ccccc4Cl)CC3)cc2NC1=O (centres undefined)	816 s
O=C(Cn1cnc2c(sc3nc(-c4ccccc4)ccc32)c1=O)NCCc1ccc(Cl)cc1	1060 s
Cc1cc(C)cc(Oc2cc(N3CCC(C(=O)NCCc4ccccc4)CC3)ncn2)c1	986 s
O=S(=O)(NCc1ccccc1F)c1c[nH]c2ncccc12	708 s
O=C(Nc1ccccc1F)N1CC(c2nc(CCOCC3CCCC3)no2)C1	946 s
COc1ccc(CNS(=O)(=O)c2ccc(-c3c(C)noc3C)cc2)cc1	886 s
Cc1nn(-c2ccc(F)cc2)c(C)c1S(=O)(=O)N1CCC(C(=O)NCc2cccs2)CC1	861 s
CCOCCCNCc1ccc(-c2ccccc2F)o1	672 s

SMILES	RP-LC retention time
Cc1cc(Cl)ccc1NC(=O)c1cccn1Cc1noc(C2CC2)n1	1020 s
CCOC(=O)c1cc(C2CC2)nc2c1c(=O)n(CCc1c(C)noc1C)c(=O)n2C	980 s
CC1(C)CC(=O)c2cn(-c3ccccc3)c(=O)c(C(=O)N3CCc4ccccc43)c2C1	910 s
Cc1cccc(NC(=O)NCC(c2cccnc2)c2cn(C)c3ccccc23)c1C (centres undefined)	719 s
COc1ccccc1NS(=O)(=O)c1ccc(-c2nnc(C3CCC3)o2)o1	904 s
O=c1c2sccc2n(Cc2nc(-c3ccc(Cl)cc3)no2)c(=O)n1-c1ccccc1F	1070 s
COc1ccc(OC)c(CNC(=O)[C@@H]2[C@H](c3cc(OC)c(OC)c(OC)c3)c3cc4c(cc3[C@H](O)[C@H]2CO)OCO4)c1	721 s
Cc1nc2cc(-c3noc(-c4cc(F)ccc4F)n3)ccc2o1	1070 s
OCC1OC(n2cnc3c(SCc4ccccc4)ncnc32)C(O)C1O (centres undefined)	663 s
Cc1cc(C)c(C(=O)N2CCCC(C(=O)NC3CCCCC3)C2)[nH]1 (centres undefined)	809 s
Cc1ccc2c(Nc3ccccc3C)c(-c3nc(C)no3)cnc2n1	743 s
COc1ccc(NC(=O)Cn2c(N3CCOCC3)nc(C)cc2=O)c(OC)c1	669 s
Cc1nc(-c2csc(S(=O)(=O)N3CCCC(C(=O)Nc4ccc(Cl)cc4C)C3)c2)no1 (centres undefined)	1040 s
CCOC(=O)c1nc(NCc2ccc(OC(C)C)cc2)c2c(C)noc2n1	1000 s
Cn1ccc(CN2CCC(Cc3ccccc3)CC2)cc1=O	611 s
COCCNC(=O)c1ccccc1Sc1nccnc1Oc1ccccc1	852 s
CN(C)CCCNC(=O)C1CCN(c2nc3ccc(-c4cccs4)nc3s2)CC1	647 s
CC(=O)N1CCC(C2CCN(C(=O)CN3CCCC3=O)C2)CC1 (centres undefined)	580 s
Cc1ccc(N2C(=O)SC(N(CC(N)=O)c3ccc(C)cc3)C2=O)cc1 (centres undefined)	782 s
COC(=O)c1ccc(Cl)cc1NC(=O)N1CCN(Cc2nc3cc(Cl)ccc3o2)CC1	1150 s

SMILES	RP-LC retention time
CC(C)Cn1c(=O)c(N2CCC(NC(=O)NCc3ccccc3)CC2)nc2ccccc21	980 s
CCOC(=O)c1nc(N(C)c2ccccc2F)c2ccccc2n1	931 s
Cc1cc(N2CCCC2)n2nc(CN3CCN(c4ccccc4Cl)CC3)nc2n1	662 s
O=C(Cn1ccn2nc(-c3ccccc3)c(CO)c2c1=O)NCCC1=CCCCC1	857 s
COc1ccc(S(=O)(=O)N2CCN(c3cc(C)nc(N4CCCCC4)n3)CC2)cc1Cl	768 s
CC(C)NC(=O)c1ccc(OCC2CCN(C(=O)Cc3ccc(Cl)cc3)CC2)cc1	927 s
COc1cc(OC)cc(C(=O)N2CCN(c3cc(-c4cccnc4)[nH]n3)CC2)c1	570 s
Cn1cc(CN2CCC(C(=O)NC3CCCCCC3)CC2)c2cc(Cl)ccc21	751 s
CC(C)N1C(=O)c2cccnc2Sc2cc(NC(=O)c3ccc(F)c(F)c3)ccc21	925 s
CN1CCN(CCCNC(=O)Cn2c(=O)c3cccn3c3ccc(F)cc32)CC1	589 s
CC(Nc1nc(N2CCCC2)nc2ccccc12)c1ccccc1 (centres undefined)	781 s
Cc1ccc2ncn(C3CCN(S(=O)(=O)c4ccc(CC(C)C)cc4)CC3)c(=O)c2c1	1150 s
COc1ccccc1-c1nc2sc3c(c2c(=O)[nH]1)CCCC3	1150 s
CC(=O)NCCc1csc(C2CCN(C(=O)C3CCC3)CC2)n1	625 s
c1ccc2c(-c3nnc(C4CC4)o3)nnc(NC3CCCCC3)c2c1	793 s
CC(C)Cc1cc(-c2nn3c(COc4ccc(F)cc4)nnc3s2)n[nH]1	936 s
Cc1ccc(-c2cc(C(=O)N3CCN(c4ccccn4)CC3)ccn2)s1	639 s
Cc1cc(C)c(S(=O)(=O)N2CCCC2c2nc(-c3ccccc3)no2)c(C)c1 (centres undefined)	1230 s
CCN1CCN(S(=O)(=O)c2cc(-c3nnc(C4CCCC4)o3)co2)CC1	637 s

— the METLIN SMRT retention time set (Domingo-Almenara et al. 2019)
